Test results published in paper PMC6642608, “Putative trehalose biosynthesis proteins function as differential floridoside-6-phosphate synthases to participate in the abiotic stress response in the red alga Pyropia haitanensis” (BMC Plant Biology, 2019).

Tests used:
Assay in all cases: HPLC-MS of products after alkaline phosphatase
Format in all cases: biochemical
Settings in all cases: 100 mM UDP-galactose, 10 mM MgSO4, pH 8.0 protein buffer, 30 °C, 16 h
PhTPS4 = molecular target: T1, PhTPS4 (Pyropia haitanensis, UniProt U3GP00)
T1 construct: E. coli BL21, pET-28a or pET-28a-sumo, His tag, sumo-His tag cut before assay; full-length ORF 1008 aa with N-terminal CBM20

PhTPS1 = molecular target: T2, PhTPS1 (Pyropia haitanensis, UniProt T1UQ24)
T2 construct: E. coli BL21, pET-28a or pET-28a-sumo, His tag, sumo-His tag cut before assay; full-length ORF 1154 aa

PhTPS3 = molecular target: T3, PhTPS3 (Pyropia haitanensis, UniProt A0A0A7PA46)
T3 construct: E. coli BL21, pET-28a or pET-28a-sumo, His tag, sumo-His tag cut before assay; full-length ORF 1108 aa
T3 sequence (A0A0A7PA46 entry or part of it): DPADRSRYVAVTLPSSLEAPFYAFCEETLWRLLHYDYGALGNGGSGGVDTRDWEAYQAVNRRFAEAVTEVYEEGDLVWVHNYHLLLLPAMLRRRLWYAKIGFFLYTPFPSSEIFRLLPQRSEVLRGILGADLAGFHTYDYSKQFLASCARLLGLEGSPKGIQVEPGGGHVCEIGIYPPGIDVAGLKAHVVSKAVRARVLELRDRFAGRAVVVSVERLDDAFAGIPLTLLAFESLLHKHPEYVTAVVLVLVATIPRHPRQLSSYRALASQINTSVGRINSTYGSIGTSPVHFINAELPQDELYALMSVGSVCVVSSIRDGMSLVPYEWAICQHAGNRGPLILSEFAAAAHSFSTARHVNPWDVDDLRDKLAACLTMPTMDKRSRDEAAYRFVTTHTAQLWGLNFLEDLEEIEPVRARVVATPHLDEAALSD

T1 sequence (U3GP00 entry or part of it): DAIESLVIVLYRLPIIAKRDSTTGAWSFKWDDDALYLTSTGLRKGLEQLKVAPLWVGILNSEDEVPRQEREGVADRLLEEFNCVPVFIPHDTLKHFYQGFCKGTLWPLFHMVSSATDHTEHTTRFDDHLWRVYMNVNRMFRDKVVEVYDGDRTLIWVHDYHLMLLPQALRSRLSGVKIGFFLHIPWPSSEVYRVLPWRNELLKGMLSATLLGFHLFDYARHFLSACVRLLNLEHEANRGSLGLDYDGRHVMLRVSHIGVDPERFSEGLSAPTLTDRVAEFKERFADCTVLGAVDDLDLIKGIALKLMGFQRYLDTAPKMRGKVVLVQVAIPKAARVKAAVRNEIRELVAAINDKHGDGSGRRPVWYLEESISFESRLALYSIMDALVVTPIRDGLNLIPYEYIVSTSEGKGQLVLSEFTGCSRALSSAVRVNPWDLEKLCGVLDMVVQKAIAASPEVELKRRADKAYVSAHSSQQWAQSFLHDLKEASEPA
T2 sequence (T1UQ24 entry or part of it): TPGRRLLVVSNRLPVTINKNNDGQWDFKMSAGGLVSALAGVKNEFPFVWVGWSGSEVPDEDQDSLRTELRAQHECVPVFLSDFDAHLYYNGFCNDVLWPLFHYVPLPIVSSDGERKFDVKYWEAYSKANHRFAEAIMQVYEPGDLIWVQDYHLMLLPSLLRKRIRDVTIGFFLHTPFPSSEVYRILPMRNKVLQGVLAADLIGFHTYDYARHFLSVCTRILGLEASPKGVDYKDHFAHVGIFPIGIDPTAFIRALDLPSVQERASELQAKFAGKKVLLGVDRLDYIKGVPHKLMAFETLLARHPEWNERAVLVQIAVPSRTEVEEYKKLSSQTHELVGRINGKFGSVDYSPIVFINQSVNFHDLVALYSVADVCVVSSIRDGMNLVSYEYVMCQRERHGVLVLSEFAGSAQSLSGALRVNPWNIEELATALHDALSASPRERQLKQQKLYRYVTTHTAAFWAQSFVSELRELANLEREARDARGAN

Q: How did the “HPLC-MS of products after alkaline phosphatase” value (“HPLC-MS of products” for short) (PhTPS4) turn out when `O=P(O)(O)OC[C@H](O)CO` [G3P] was run?
A: UDP-Gal and G3P were allowed to react with them

Q: And the “HPLC-MS of products” value (PhTPS1)?
A: UDP-Gal and G3P were allowed to react with them

Q: What about the “HPLC-MS of products” value (PhTPS3) of the same compound?
A: UDP-Gal and G3P were allowed to react with them
